According to PMC6981392, “Characterization of a Maltase from an Early-Diverged Non-Conventional Yeast Blastobotrys adeninivorans” (International Journal of Molecular Sciences, 2019):
“Also recorded” adds a separate entry of the source. Like-named read-outs stand apart in the source and are kept apart here.

Tests used:
[1] = biological target: T1, BaAG2 (Blastobotrys adeninivorans, UniProt Z9CO09ION3); assay: Differential scanning fluorimetry (DSF) thermostability of BaAG2 with ligands; format: binding; conditions: 2 µM BaAG2, unliganded Tm 51 °C; 100 mM fructose, 50 mM palatinose, 50 mM glucose, 5 mM Tris, 5 mM acarbose; HEPES pH 7.0
T1 sequence (Z9CO09ION3 1-580): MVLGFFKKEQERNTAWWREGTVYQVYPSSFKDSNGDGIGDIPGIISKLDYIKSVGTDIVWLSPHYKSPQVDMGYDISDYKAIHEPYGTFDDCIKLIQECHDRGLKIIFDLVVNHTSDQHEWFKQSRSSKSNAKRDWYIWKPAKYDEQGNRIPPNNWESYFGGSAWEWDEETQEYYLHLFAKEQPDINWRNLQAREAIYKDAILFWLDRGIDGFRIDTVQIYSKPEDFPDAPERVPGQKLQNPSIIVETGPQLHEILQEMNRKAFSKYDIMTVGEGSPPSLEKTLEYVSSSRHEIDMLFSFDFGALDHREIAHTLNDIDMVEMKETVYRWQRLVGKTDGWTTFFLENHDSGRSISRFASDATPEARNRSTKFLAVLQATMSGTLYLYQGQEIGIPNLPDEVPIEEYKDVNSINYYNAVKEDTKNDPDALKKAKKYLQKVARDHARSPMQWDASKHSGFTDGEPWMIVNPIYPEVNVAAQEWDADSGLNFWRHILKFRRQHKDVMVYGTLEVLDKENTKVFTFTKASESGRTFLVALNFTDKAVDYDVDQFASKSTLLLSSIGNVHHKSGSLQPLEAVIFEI
Procedure: The reaction was conducted in 50 mM 4-(2-hydroxyethyl)-1-piperazineethanesulfonic acid) (HEPES) buffer (pH 7.0) with 150 mM NaCl. […] At least two independent experiments were performed with two technical replicates.

[2] = biological target: T1, BaAG2; assay: Inhibition of pNPG hydrolysis by BaAG2
Procedure: (§1) 100 mM K-phosphate buffer (pH 6.5) was used and reactions were conducted at 30 °C if not stated otherwise. The purified enzyme was unstable if diluted therefore 5 g/L bovine serum albumin (BSA) was added to the dilution buffer as a protein stabilizer to retain its full catalytic activity. […] The content of the released glucose was determined spectrophotometrically as in [16, 47]. The activities (µmoles of glucose released per minute per mg of protein; U/mg) were calculated from initial velocities of the reaction. […] At least three independent measurements for each substrate and concentration were made.
The Ki values were calculated using enzyme kinetics module of the SigmaPlot (Systat Software, San Jose, CA, USA).

[3] = test system: B. adeninivorans CBS 8244; parameters: method as in earlier work; conditions: CBS-KNAW culture collection; cited from earlier work
[4] = biological target: T1, BaAG2; assay: Substrate specificity of BaAG2 on 100 mM sugars and 1 mM pNPG; format: biochemical; conditions: 100 mM sugars, pH 6.5, 30 °C
Procedure: Hydrolysis of pNPG was assayed as in [16, 40] according to the release of p-nitrophenol. 100 mM K-phosphate buffer (pH 6.5) was used and reactions were conducted at 30 °C if not stated otherwise. The purified enzyme was unstable if diluted therefore 5 g/L bovine serum albumin (BSA) was added to the dilution buffer as a protein stabilizer to retain its full catalytic activity. […] The content of the released glucose was determined spectrophotometrically as in [16, 47]. The activities (µmoles of glucose released per minute per mg of protein; U/mg) were calculated from initial velocities of the reaction. For kinetic analysis, initial rates of p-nitrophenol or glucose release from substrates were measured at four to seven concentrations ranging from 0.1–3.0 mM for pNPG and 2.5–250 mM for di- and trisaccharides. At least three independent measurements for each substrate and concentration were made. BaAG2 content in reaction mixtures ranged from 0.02 to 3.5 µg/mL. […] The theoretical Mw value of 67,901 Da for the kcat calculation was computed in ExPASy Proteomics Server (http://expasy.org).

[5] = test system: B. adeninivorans; assay: Growth of B. adeninivorans on sugars (OD 600 nm); format: cell-based, Blastobotrys adeninivorans; conditions: YNB medium, 2 g/L sugar, 24 h, 37 °C
Procedure: Blastobotrys (Arxula) adeninivorans LS3 (CBS 8244) was kindly provided by Assoc. Prof. V. Passoth (SLU, Uppsala, Sweden). The yeast strain was grown on solid YPD medium (20 g/L peptone, 20 g/L glucose, 10 g/L yeast extract, 20 g/L agar) at 30 °C 24 h for harvesting the cells for genomic DNA extraction. E. coli DH5α (Thermo Fisher Scientific, Waltham, MA, USA) was used for DNA cloning and plasmid production. E. coli BL21 (DE3) was used for heterologous expression of BaAG2. The ability of B. adeninivorans to grow on sugars was assayed as in [12]. Yeast cells grown overnight on BD Difco YNB medium (Thermo Fisher Scientific, Waltham, MA, USA) without amino acids containing 2 g/L glucose were used as inoculum. […] The cells were incubated on Greiner 96-well flat-bottom transparent polystyrene microplates (Greiner Bio-One, Frickenhausen, Germany) in 200 µl under agitation for 24 h at 37 °C. Optical density of the culture at 600 nm was measured against inoculated medium without sugar at the beginning and end of the experiment using an Infinite M200 PRO microplate reader (Tecan Group Ltd., Männedorf, Switzerland) equipped with Tecan i-control v. 1.7 software from the same provider. Two independent experiments with two parallel measurements were conducted.

[6] = biological target: T1, BaAG2; assay: Kinetics of hydrolysis of pNPG and sugars by BaAG2; conditions: for Km: read-out: Km ± SD; for Km / Vmax ± SD / kcat ± SD: substrate hydrolysis, pH 6.5, 30 °C; for kcat ± SD: calculated from Vmax with Mw 67,901 Da
Procedure: as §1

[7] = test system: α-glucosidase of A. niger; parameters: method as in doi:10.1271/bbb1961.55.2327; conditions: on maltose; cited from earlier work
[8] = test system: extracellular α-glucosidase of Schizosaccharomyces pombe; conditions: on maltose; cited from earlier work
[9] = biological target: T1, BaAG2; assay: TLC assay of panose hydrolysis by BaAG2; conditions: 50 mM panose, extended (22 h) reaction time
Procedure: The reaction samples were analyzed using TLC.
To visualize hydrolysis and polymerization products, the TLC analysis was conducted as in [16] on Silica Gel 60 F254 plates with concentrating zone (Merck, Darmstadt, Germany). 0.5 µl of the stopped reaction mixture were spotted onto the plate and sugars were separated with two runs in chloroform:acetic acid:water (6:7:1, v:v:v) [67]. For the analysis of products of polysaccharide degradation, 3 µl of the reaction mixtures were spotted. Sugars were visualized by immersion of the plates in aniline-diphenylamine reagent and subsequent heating of the dried plates at 100 °C [68].

[10] = biological target: T1, BaAG2; assay: Degradation of glucose polymers by BaAG2 (glucose release, TLC); format: biochemical; conditions: polysaccharide 5 g/L, 20 µg/mL enzyme
Procedure: Polysaccharide concentration in the reaction mixture was 5 g/L, and 20 µg/mL of the enzyme was used. At desired time points (2 h, 24 h, 74/96 h) aliquots were withdrawn and heated to stop the reaction. A negative control containing 20 µg/mL BSA instead of the enzyme was incubated alongside. Concentration of released glucose was measured as described above and 3 µl of the samples were analysed on TLC. Maltase from S. cerevisiae (ScMAL62), amyloglycosidase from Aspergillus niger (Sigma-Aldrich, Merck, Darmstadt, Germany) and α-amylase from Aspergillus oryzae (Sigma-Aldrich, Merck, Darmstadt, Germany) were reacted with tested glucose polymers for comparison.

OC[C@H]1OC(O)[C@H](O)[C@@H](O)[C@@H]1O (stereo partly shown) [Glucose]
increase of Tm in the presence of a ligand [1]: 4.4 °C
Inhibition Mode [2]: Competitive

OC[C@H]1O[C@H](O[C@H]2O[C@H](CO)[C@@H](O)[C@H](O)[C@H]2O)[C@H](O)[C@@H](O)[C@@H]1O [trehalose]
assimilation by B. adeninivorans CBS 8244 [3]: assimilates

O=C(CO)[C@@H](O[C@H]1O[C@H](CO)[C@@H](O)[C@H](O)[C@H]1O)[C@H](O)[C@H](O)CO [Turanose]
hydrolysis by BaAG2 [4]: could hydrolyze
growth of B. adeninivorans on sugar [5]: new growth substrates
Km [6]: 45.2 ± 6 mM
Vmax ± SD [6]: 190.1 ± 10.4 µmol/mg/min
kcat ± SD [6]: 215.1 ± 11.9 s⁻¹

CO[C@H]1O[C@H](CO)[C@@H](O)[C@H](O)[C@H]1O [α-MG, α-methylglucoside, reference compound]
hydrolysis by BaAG2 [4]: could not hydrolyze
hydrolysis by BaAG2 ([4]; listed as α-methylglucoside): not hydrolyzed
assimilation by B. adeninivorans CBS 8244 [3]: assimilates
Inhibition Mode [2]: Competitive

C[C@H]1O[C@H](O[C@H]2[C@H](O)[C@@H](O)[C@@H](O[C@H]3[C@H](O)[C@@H](O)C(O)O[C@@H]3CO)O[C@@H]2CO)[C@H](O)[C@@H](O)[C@@H]1N[C@H]1C=C(CO)[C@@H](O)[C@H](O)[C@H]1O (stereo partly shown) [Acarbose, reference compound]
Ki ([2]; read-out: Ki ± SD, values marked * are given in µM, pH 6.5, 30 °C): 0.83 ± 0.01 µM
Ki ([2]; read-out: Ki ± SD, values marked * are given in µM, pH 6.5, 30 °C, listed as acarbose): 0.8 µM

OC[C@H]1O[C@@](CO)(O[C@H]2O[C@H](CO)[C@@H](O)[C@H](O)[C@H]2O)[C@@H](O)[C@@H]1O [Sucrose, α-D-Glc-(1→2)-β-D-Fru]
hydrolysis by BaAG2 [4]: could hydrolyze
assimilation by B. adeninivorans CBS 8244 [3]: assimilates

OC[C@H]1O[C@H](O[C@H]2[C@H](O)[C@@H](O)C(O)O[C@@H]2CO)[C@H](O)[C@@H](O)[C@@H]1O (mixture of isomers) [Maltose]
hydrolysis by BaAG2 [4]: could hydrolyze
assimilation by B. adeninivorans CBS 8244 [3]: assimilates
Catalytic constant (kcat) [7]: 144 s⁻¹
kcat [8]: 709 s⁻¹

OC[C@H]1O[C@H](OC[C@H]2OC(O)(CO)[C@@H](O)[C@@H]2O)[C@H](O)[C@@H](O)[C@@H]1O (stereo partly shown) [Palatinose]
hydrolysis by BaAG2 [4]: not hydrolyzed; also recorded: could not hydrolyze
growth of B. adeninivorans on sugar [5]: new growth substrates

Maltotriose
hydrolysis by BaAG2 [4]: could hydrolyze
growth of B. adeninivorans on sugar [5]: new growth substrates

OC[C@H]1O[C@H](OC[C@H]2O[C@H](O[C@H]3[C@H](O)[C@@H](O)C(O)O[C@@H]3CO)[C@H](O)[C@@H](O)[C@@H]2O)[C@H](O)[C@@H](O)[C@@H]1O (stereo partly drawn) [panose, α-D-Glc-(1→6)-α-D-Glc-(1→4)-D-Glc]
hydrolysis by BaAG2 [9]: not hydrolyzed

O=C(CO)[C@@H](O)[C@H](O)[C@H](O)CO [Fructose]
Inhibition Mode [2]: Competitive

O=[N+]([O-])c1ccc(O[C@@H]2O[C@H](CO)[C@H](O)[C@H](O)[C@H]2O)cc1 [pNPG, p-nitrophenyl-α-D-glucopyranoside, reference compound]
hydrolysis by BaAG2 [4]: could hydrolyze
Vmax [6]: over 750 U/mg
Km [6]: 0.76 ± 0.03 mM
Vmax ± SD [6]: 751.3 ± 14.5 µmol/mg/min
kcat ± SD [6]: 850.2 ± 16.4 s⁻¹

Maltulose
hydrolysis by BaAG2 [4]: could hydrolyze
growth of B. adeninivorans on sugar [5]: new growth substrates
Km [6]: 7.8 ± 1 mM
Vmax ± SD [6]: 52.2 ± 1.8 µmol/mg/min
kcat ± SD [6]: 59.1 ± 2.1 s⁻¹

OC[C@H]1O[C@@](CO)(O[C@H]2O[C@H](CO)[C@@H](O)[C@H](O)[C@H]2O)[C@@H](O[C@H]2O[C@H](CO)[C@@H](O)[C@H](O)[C@H]2O)[C@@H]1O [Melezitose]
hydrolysis by BaAG2 [4]: could hydrolyze
assimilation by B. adeninivorans CBS 8244 [3]: assimilates
Vmax ± SD [6]: 231.0 ± 31.8 µmol/mg/min
kcat ± SD [6]: 261.4 ± 36.1 s⁻¹

amylopectin
glucose released ([10]; by 24 h): 0.1 g/L
glucose released ([10]; by 72 h): 0.3 g/L

OC[C@H]1O[C@H](OC[C@H]2OC(O)[C@H](O)[C@@H](O)[C@@H]2O)[C@H](O)[C@@H](O)[C@@H]1O (stereo partly shown) [Isomaltose]
hydrolysis by BaAG2 [4]: not hydrolyzed
hydrolysis by BaAG2 ([4]; listed as isomaltose): could not hydrolyze
growth of B. adeninivorans on sugar [5]: new growth substrates
Inhibition Mode [2]: Competitive
